{"source": "BindingDB's records for doi:10.1016/j.bmcl.2018.08.004", "about": "(Beijing Institute of Pharmacology and Toxicology, 2018)", "note": "Bridge positions count the residues as written; N and C are the ends. Square brackets hold non-standard residues; d marks the D form. Peptide text beside a SMILES is read from it. Phe(4-Br) = N[C@@H](Cc1ccc(Br)cc1)C(=O)O; Phe(4-Cl) = N[C@@H](Cc1ccc(Cl)cc1)C(=O)O; 1Nal = N[C@@H](Cc1cccc2ccccc12)C(=O)O; 2Nal = N[C@@H](Cc1ccc2ccccc2c1)C(=O)O; Phe(2-F) = N[C@@H](Cc1ccccc1F)C(=O)O; Cit = NC(=O)NCCC[C@H](N)C(=O)O; NMeA = CN[C@@H](C)C(=O)O; Sar = CNCC(=O)O"}
{"assay": "Agonist activity at EPO receptor in human TF1 cells assessed as induction of cell proliferation after 48 hrs by MTT assay", "units": {"EC50": "nM"}}
{"compound": "CC[C@H](C)[C@@H]1NC(=O)[C@@H]2CCCN2C(=O)CNC(=O)[C@H](CCSC)NC(=O)[C@H](Cc2cnc[nH]2)NC(=O)[C@@H](NC(=O)[C@H](C)NC(=O)[C@H](Cc2ccc(O)cc2)NC(=O)[C@H](CC(C)C)NC(=O)CNC(=O)CNC(C)=O)CSSC[C@@H](C(=O)N[C@@H](CCC(N)=O)C(=O)N2CCC[C@H]2C(=O)N[C@@H](CC(C)C)C(=O)N[C@@H](CCCNC(=N)N)C(=O)N(C)CC(=O)N[C@@H](CCCCN)C(N)=O)NC(=O)[C@H](C(C)C)NC(=O)[C@H](Cc2ccccc2F)NC(=O)[C@H]([C@@H](C)O)NC1=O", "note": "(Ac-GGLYACHMGPIT[Phe(2-F)]VCQPLR[Sar]K-NH2; disulfide 6-15)", "EC50": 540}
{"compound": "CC[C@H](C)[C@@H]1NC(=O)[C@@H]2CCCN2C(=O)CNC(=O)[C@H](CCSC)NC(=O)[C@H](Cc2cnc[nH]2)NC(=O)[C@@H](NC(=O)[C@H](C)NC(=O)[C@H](Cc2ccc(O)cc2)NC(=O)[C@H](CC(C)C)NC(=O)CNC(=O)CNC(C)=O)CSSC[C@@H](C(=O)N[C@@H](CCC(N)=O)C(=O)N2CCC[C@H]2C(=O)N[C@@H](CC(C)C)C(=O)N[C@@H](CCCNC(=N)N)C(=O)N(C)CC(=O)N[C@@H](CCCCN)C(N)=O)NC(=O)[C@H](C(C)C)NC(=O)[C@H](Cc2ccc3ccccc3c2)NC(=O)[C@H]([C@@H](C)O)NC1=O", "note": "(Ac-GGLYACHMGPIT[2Nal]VCQPLR[Sar]K-NH2; disulfide 6-15)", "EC50": 540}
{"compound": "CC[C@H](C)[C@@H]1NC(=O)[C@@H]2CCCN2C(=O)CNC(=O)[C@H](CCSC)NC(=O)[C@H](Cc2cnc[nH]2)NC(=O)[C@@H](NC(=O)[C@H](C)NC(=O)[C@H](Cc2ccc(O)cc2)NC(=O)[C@H](CC(C)C)NC(=O)CNC(=O)CNC(C)=O)CSSC[C@@H](C(=O)N[C@@H](CCC(N)=O)C(=O)N2CCC[C@H]2C(=O)N[C@@H](CC(C)C)C(=O)N[C@@H](CCCNC(N)=O)C(=O)N(C)CC(=O)N[C@@H](CCCCN)C(N)=O)NC(=O)[C@H](C(C)C)NC(=O)[C@H](Cc2cccc3ccccc23)NC(=O)[C@H]([C@@H](C)O)NC1=O", "note": "(Ac-GGLYACHMGPIT[1Nal]VCQPL[Cit][Sar]K-NH2; disulfide 6-15)", "EC50": 31}
{"compound": "CC[C@H](C)[C@@H]1NC(=O)[C@@H]2CCCN2C(=O)CNC(=O)[C@H](CCSC)NC(=O)[C@H](Cc2cnc[nH]2)NC(=O)[C@@H](NC(=O)[C@H](C)NC(=O)[C@H](Cc2ccc(O)cc2)NC(=O)[C@H](CC(C)C)NC(=O)CNC(=O)CNC(C)=O)CSSC[C@@H](C(=O)N[C@@H](CCC(N)=O)C(=O)N2CCC[C@H]2C(=O)N[C@@H](CC(C)C)C(=O)N[C@@H](CCCNC(=N)N)C(=O)N(C)CC(=O)N[C@@H](CCCCN)C(N)=O)NC(=O)[C@H](C(C)C)NC(=O)[C@H](Cc2ccc(Br)cc2)NC(=O)[C@H]([C@@H](C)O)NC1=O", "note": "(Ac-GGLYACHMGPIT[Phe(4-Br)]VCQPLR[Sar]K-NH2; disulfide 6-15)", "EC50": 540}
{"compound": "CC[C@H](C)[C@@H]1NC(=O)[C@@H]2CCCN2C(=O)CNC(=O)[C@H](CCSC)NC(=O)[C@H](Cc2cnc[nH]2)NC(=O)[C@@H](NC(=O)[C@H](C)NC(=O)[C@H](Cc2ccc(O)cc2)NC(=O)[C@H](CC(C)C)NC(=O)CNC(=O)CNC(C)=O)CSSC[C@@H](C(=O)N[C@@H](CCC(N)=O)C(=O)N(C)CC(=O)N[C@@H](CC(C)C)C(=O)N[C@@H](CCCNC(=N)N)C(=O)N(C)CC(=O)N[C@@H](CCCCN)C(N)=O)NC(=O)[C@H](C(C)C)NC(=O)[C@H](Cc2cccc3ccccc23)NC(=O)[C@H]([C@@H](C)O)NC1=O", "note": "(Ac-GGLYACHMGPIT[1Nal]VCQ[Sar]LR[Sar]K-NH2; disulfide 6-15)", "EC50": 42}
{"compound": "CC[C@H](C)[C@@H]1NC(=O)[C@@H]2CCCN2C(=O)CNC(=O)[C@H](CCSC)NC(=O)[C@H](Cc2cnc[nH]2)NC(=O)[C@@H](NC(=O)[C@H](C)NC(=O)[C@H](Cc2ccc(O)cc2)NC(=O)[C@H](CC(C)C)NC(=O)CNC(=O)CNC(C)=O)CSSC[C@@H](C(=O)N[C@@H](CCC(N)=O)C(=O)N(C)[C@@H](C)C(=O)N[C@@H](CC(C)C)C(=O)N[C@@H](CCCNC(=N)N)C(=O)N(C)CC(=O)N[C@@H](CCCCN)C(N)=O)NC(=O)[C@H](C(C)C)NC(=O)[C@H](Cc2cccc3ccccc23)NC(=O)[C@H]([C@@H](C)O)NC1=O", "note": "(Ac-GGLYACHMGPIT[1Nal]VCQ[NMeA]LR[Sar]K-NH2; disulfide 6-15)", "EC50": 12}
{"compound": "CC[C@H](C)[C@@H]1NC(=O)CN(C)C(=O)CNC(=O)[C@H](CCSC)NC(=O)[C@H](Cc2cnc[nH]2)NC(=O)[C@@H](NC(=O)[C@H](C)NC(=O)[C@H](Cc2ccc(O)cc2)NC(=O)[C@H](CC(C)C)NC(=O)CNC(=O)CNC(C)=O)CSSC[C@@H](C(=O)N[C@@H](CCC(N)=O)C(=O)N2CCC[C@H]2C(=O)N[C@@H](CC(C)C)C(=O)N[C@@H](CCCNC(=N)N)C(=O)N(C)CC(=O)N[C@@H](CCCCN)C(N)=O)NC(=O)[C@H](C(C)C)NC(=O)[C@H](Cc2cccc3ccccc23)NC(=O)[C@H]([C@@H](C)O)NC1=O", "note": "(Ac-GGLYACHMG[Sar]IT[1Nal]VCQPLR[Sar]K-NH2; disulfide 6-15)", "EC50": 31}
{"compound": "CC[C@H](C)[C@@H]1NC(=O)[C@@H]2CCCN2C(=O)CNC(=O)[C@H](CCSC)NC(=O)[C@H](Cc2cnc[nH]2)NC(=O)[C@@H](NC(=O)[C@H](C)NC(=O)[C@H](Cc2ccc(O)cc2)NC(=O)[C@H](CC(C)C)NC(=O)CNC(=O)CNC(C)=O)CSSC[C@@H](C(=O)N[C@@H](CCC(N)=O)C(=O)N2CCC[C@H]2C(=O)N[C@@H](CC(C)C)C(=O)N[C@@H](CCCNC(=N)N)C(=O)N(C)CC(=O)N[C@@H](CCCCN)C(N)=O)NC(=O)[C@H](C(C)C)NC(=O)[C@H](Cc2ccc(Cl)cc2)NC(=O)[C@H]([C@@H](C)O)NC1=O", "note": "(Ac-GGLYACHMGPIT[Phe(4-Cl)]VCQPLR[Sar]K-NH2; disulfide 6-15)", "EC50": 240}
{"compound": "CC[C@H](C)[C@@H]1NC(=O)[C@H](C)N(C)C(=O)CNC(=O)[C@H](CCSC)NC(=O)[C@H](Cc2cnc[nH]2)NC(=O)[C@@H](NC(=O)[C@H](C)NC(=O)[C@H](Cc2ccc(O)cc2)NC(=O)[C@H](CC(C)C)NC(=O)CNC(=O)CNC(C)=O)CSSC[C@@H](C(=O)N[C@@H](CCC(N)=O)C(=O)N2CCC[C@H]2C(=O)N[C@@H](CC(C)C)C(=O)N[C@@H](CCCNC(=N)N)C(=O)N(C)CC(=O)N[C@@H](CCCCN)C(N)=O)NC(=O)[C@H](C(C)C)NC(=O)[C@H](Cc2cccc3ccccc23)NC(=O)[C@H]([C@@H](C)O)NC1=O", "note": "(Ac-GGLYACHMG[NMeA]IT[1Nal]VCQPLR[Sar]K-NH2; disulfide 6-15)", "EC50": 26}
{"compound": "CC[C@H](C)[C@@H]1NC(=O)[C@@H]2CCCN2C(=O)CNC(=O)[C@H](CCSC)NC(=O)[C@H](Cc2cnc[nH]2)NC(=O)[C@@H](NC(=O)[C@H](C)NC(=O)[C@H](Cc2ccc(O)cc2)NC(=O)[C@H](CC(C)C)NC(=O)CNC(=O)CNC(C)=O)CSSC[C@@H](C(=O)N[C@@H](CCC(N)=O)C(=O)N2CCC[C@H]2C(=O)N[C@@H](CC(C)C)C(=O)N[C@@H](CCCNC(=N)N)C(=O)N(C)CC(=O)N[C@@H](CCCCN)C(N)=O)NC(=O)[C@H](C(C)C)NC(=O)[C@H](Cc2cccc3ccccc23)NC(=O)[C@H]([C@@H](C)O)NC1=O", "EC50": 11}
